Assay results from publication PMC7385619, “A triple action CDK4/6-PI3K-BET inhibitor with augmented cancer cell cytotoxicity” (Cell Discovery, 2020).
Read-outs that look alike come from different tables or passages of the source.

Experiments:
Test in all cases: KINOMEscan assay (Eurofins DiscoverX)
Format in all cases: binding
[1] = molecular target: T1, kinome (kinase panel) (Homo sapiens, UniProt Q92772); conditions: CDKL2; 1000 nM; read-out: Percent Control
T1 construct: purchased Eurofins DiscoverX

[2] = molecular target: T2, kinome (kinase panel) (Homo sapiens, UniProt Q15831); conditions: LKB1 (Entrez STK11); 1000 nM; read-out: Percent Control
T2 construct: purchased Eurofins DiscoverX

[3] = molecular target: T3, kinome (kinase panel) (Homo sapiens, UniProt Q9P286); conditions: PAK7; 1000 nM; read-out: Percent Control
T3 construct: purchased Eurofins DiscoverX

[4] = molecular target: T4, kinome (kinase panel) (Homo sapiens, UniProt P09619); conditions: PDGFRB; 1000 nM; read-out: Percent Control
T4 construct: purchased Eurofins DiscoverX

[5] = molecular target: T5, kinome (kinase panel) (Homo sapiens, UniProt P51817); conditions: PRKX; 1000 nM; read-out: Percent Control
T5 construct: purchased Eurofins DiscoverX

[6] = molecular target: T6, kinome (kinase panel) (Homo sapiens, UniProt Q9BVS4); conditions: RIOK2; 1000 nM; read-out: Percent Control
T6 construct: purchased Eurofins DiscoverX

[7] = molecular target: T7, kinome (kinase panel) (Homo sapiens, UniProt Q13043); conditions: MST1 (Entrez STK4); 1000 nM; read-out: Percent Control
T7 construct: purchased Eurofins DiscoverX

[8] = molecular target: T8, kinome (kinase panel) (Homo sapiens, UniProt Q9P2K8, S808G); conditions: read-out: Percent Control
T8 construct: purchased Eurofins DiscoverX

[9] = molecular target: T9, kinome (kinase panel) (Homo sapiens, UniProt P06213); conditions: INSR; 1000 nM; read-out: Percent Control
T9 construct: purchased Eurofins DiscoverX

[10] = molecular target: T10, kinome (kinase panel) (Homo sapiens, UniProt P46734); conditions: MEK3 (Entrez MAP2K3); 1000 nM; read-out: Percent Control
T10 construct: purchased Eurofins DiscoverX

[11] = molecular target: T11, kinome (kinase panel) (Homo sapiens, UniProt P42336, Q546K); conditions: read-out: Percent Control
T11 construct: purchased Eurofins DiscoverX

[12] = molecular target: T12, kinome (kinase panel) (Homo sapiens, UniProt Q6PHR2); conditions: ULK3; 1000 nM; read-out: Percent Control
T12 construct: purchased Eurofins DiscoverX

[13] = molecular target: T13, kinome (kinase panel) (Homo sapiens, UniProt P36894); conditions: BMPR1A; 1000 nM; read-out: Percent Control
T13 construct: purchased Eurofins DiscoverX

[14] = molecular target: T14, kinome (kinase panel) (Homo sapiens, UniProt P45984); conditions: JNK2 (Entrez MAPK9); 1000 nM; read-out: Percent Control
T14 construct: purchased Eurofins DiscoverX

[15] = molecular target: T15, kinome (kinase panel) (Homo sapiens, UniProt Q9UEW8); conditions: STK39; 1000 nM; read-out: Percent Control
T15 construct: purchased Eurofins DiscoverX

[16] = molecular target: T16, kinome (kinase panel) (Homo sapiens, UniProt Q8IY84); conditions: NIM1 (Entrez MGC42105); 1000 nM; read-out: Percent Control
T16 construct: purchased Eurofins DiscoverX

[17] = molecular target: T17, kinome (kinase panel) (Homo sapiens, UniProt Q8TF76); conditions: HASPIN (Entrez GSG2); 1000 nM; read-out: Percent Control
T17 construct: purchased Eurofins DiscoverX

[18] = molecular target: T18, kinome (kinase panel) (Homo sapiens, UniProt Q9Y616); conditions: IRAK3; 1000 nM; read-out: Percent Control
T18 construct: purchased Eurofins DiscoverX

[19] = molecular target: T19, kinome (kinase panel) (Homo sapiens, UniProt Q8TD08); conditions: ERK8 (Entrez MAPK15); 1000 nM; read-out: Percent Control
T19 construct: purchased Eurofins DiscoverX

[20] = molecular target: T20, kinome (kinase panel) (Homo sapiens, UniProt Q8TBX8); conditions: PIP5K2C (Entrez PIP4K2C); 1000 nM; read-out: Percent Control
T20 construct: purchased Eurofins DiscoverX

[21] = molecular target: T21, kinome (kinase panel) (Homo sapiens, UniProt P29322); conditions: EPHA8; 1000 nM; read-out: Percent Control
T21 construct: purchased Eurofins DiscoverX

[22] = molecular target: T22, kinome (kinase panel) (Homo sapiens, UniProt P06239); conditions: LCK; 1000 nM; read-out: Percent Control
T22 construct: purchased Eurofins DiscoverX

[23] = molecular target: T23, kinome (kinase panel) (Homo sapiens, UniProt Q99640); conditions: PKMYT1; 1000 nM; read-out: Percent Control
T23 construct: purchased Eurofins DiscoverX

[24] = molecular target: T24, kinome (kinase panel) (Homo sapiens, UniProt Q2M2I8); conditions: AAK1; 1000 nM; read-out: Percent Control
T24 construct: purchased Eurofins DiscoverX

[25] = molecular target: T25, kinome (kinase panel) (Homo sapiens, UniProt P33981); conditions: TTK; 1000 nM; read-out: Percent Control
T25 construct: purchased Eurofins DiscoverX

[26] = molecular target: T26, kinome (kinase panel) (Homo sapiens, UniProt Q14289); conditions: PYK2 (Entrez PTK2B); 1000 nM; read-out: Percent Control
T26 construct: purchased Eurofins DiscoverX

[27] = molecular target: T27, kinome (kinase panel) (Homo sapiens, UniProt P54760); conditions: EPHB4; 1000 nM; read-out: Percent Control
T27 construct: purchased Eurofins DiscoverX

[28] = molecular target: T28, kinome (kinase panel) (Homo sapiens, UniProt Q99759); conditions: MAP3K3; 1000 nM; read-out: Percent Control
T28 construct: purchased Eurofins DiscoverX

[29] = molecular target: T29, kinome (kinase panel) (Homo sapiens, UniProt P51812); conditions: 1000 nM, read-out: Percent Control
T29 construct: purchased Eurofins DiscoverX

[30] = molecular target: T30, kinome (kinase panel) (Homo sapiens, UniProt P51813); conditions: BMX; 1000 nM; read-out: Percent Control
T30 construct: purchased Eurofins DiscoverX

[31] = molecular target: T31, kinome (kinase panel) (Homo sapiens, UniProt O00506); conditions: YSK1 (STK25); 1000 nM; read-out: Percent Control
T31 construct: purchased Eurofins DiscoverX

[32] = molecular target: T32, kinome (kinase panel) (Homo sapiens, UniProt P00519, T315I)
T32 construct: purchased Eurofins DiscoverX

T29 sequence (P51812 whole entry): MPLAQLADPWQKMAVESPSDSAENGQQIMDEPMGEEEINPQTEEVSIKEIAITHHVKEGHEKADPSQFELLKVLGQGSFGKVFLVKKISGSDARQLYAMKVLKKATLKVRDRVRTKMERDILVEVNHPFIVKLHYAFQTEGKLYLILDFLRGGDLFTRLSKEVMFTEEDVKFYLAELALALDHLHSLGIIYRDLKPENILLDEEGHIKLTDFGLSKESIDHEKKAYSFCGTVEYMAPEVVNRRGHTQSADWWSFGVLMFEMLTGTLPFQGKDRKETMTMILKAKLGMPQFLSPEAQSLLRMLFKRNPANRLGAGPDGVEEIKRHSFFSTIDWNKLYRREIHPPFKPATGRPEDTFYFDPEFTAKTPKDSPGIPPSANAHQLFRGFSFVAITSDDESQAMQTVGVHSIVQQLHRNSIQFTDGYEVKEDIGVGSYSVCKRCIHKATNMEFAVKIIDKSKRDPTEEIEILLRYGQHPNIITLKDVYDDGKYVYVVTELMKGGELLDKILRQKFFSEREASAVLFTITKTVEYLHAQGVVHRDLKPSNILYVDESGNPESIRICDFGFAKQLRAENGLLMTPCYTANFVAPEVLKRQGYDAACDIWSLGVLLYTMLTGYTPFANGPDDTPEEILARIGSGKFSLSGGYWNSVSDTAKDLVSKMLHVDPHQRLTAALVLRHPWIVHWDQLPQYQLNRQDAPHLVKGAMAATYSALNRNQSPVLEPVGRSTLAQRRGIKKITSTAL
T9 sequence (P06213 28-1382): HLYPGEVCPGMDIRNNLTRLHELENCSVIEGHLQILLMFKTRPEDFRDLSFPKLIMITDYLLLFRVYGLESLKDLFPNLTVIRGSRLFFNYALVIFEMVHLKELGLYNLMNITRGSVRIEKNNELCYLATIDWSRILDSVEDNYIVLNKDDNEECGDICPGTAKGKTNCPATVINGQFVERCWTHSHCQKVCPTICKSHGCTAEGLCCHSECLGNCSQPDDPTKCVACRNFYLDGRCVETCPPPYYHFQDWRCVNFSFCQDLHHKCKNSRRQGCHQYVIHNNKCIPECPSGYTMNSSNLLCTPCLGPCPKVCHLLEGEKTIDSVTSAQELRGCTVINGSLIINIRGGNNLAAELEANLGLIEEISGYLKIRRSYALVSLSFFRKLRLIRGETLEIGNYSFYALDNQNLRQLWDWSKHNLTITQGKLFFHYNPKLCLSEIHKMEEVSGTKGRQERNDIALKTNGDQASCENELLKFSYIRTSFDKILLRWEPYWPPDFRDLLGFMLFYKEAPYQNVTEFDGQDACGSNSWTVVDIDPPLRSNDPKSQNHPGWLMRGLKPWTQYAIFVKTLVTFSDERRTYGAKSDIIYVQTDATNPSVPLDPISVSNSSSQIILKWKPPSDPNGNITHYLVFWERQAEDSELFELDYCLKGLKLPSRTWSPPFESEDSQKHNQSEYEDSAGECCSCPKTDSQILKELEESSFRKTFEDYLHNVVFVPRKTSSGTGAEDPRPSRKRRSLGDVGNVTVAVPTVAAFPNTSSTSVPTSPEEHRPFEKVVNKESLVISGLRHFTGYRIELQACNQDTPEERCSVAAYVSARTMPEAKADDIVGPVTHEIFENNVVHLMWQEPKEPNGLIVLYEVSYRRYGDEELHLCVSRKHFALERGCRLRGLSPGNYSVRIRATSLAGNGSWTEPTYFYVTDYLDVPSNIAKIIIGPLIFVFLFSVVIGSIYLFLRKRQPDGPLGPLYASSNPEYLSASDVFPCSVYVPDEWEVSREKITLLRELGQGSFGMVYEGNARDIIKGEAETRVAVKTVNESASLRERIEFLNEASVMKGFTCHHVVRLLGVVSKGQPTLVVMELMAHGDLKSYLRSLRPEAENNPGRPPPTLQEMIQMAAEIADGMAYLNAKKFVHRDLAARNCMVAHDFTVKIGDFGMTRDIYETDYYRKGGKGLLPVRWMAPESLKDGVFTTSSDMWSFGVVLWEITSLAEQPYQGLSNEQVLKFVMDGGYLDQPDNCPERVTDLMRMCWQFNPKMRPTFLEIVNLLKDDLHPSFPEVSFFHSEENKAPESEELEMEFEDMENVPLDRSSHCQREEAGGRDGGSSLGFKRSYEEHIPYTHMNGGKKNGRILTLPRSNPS
T30 sequence (P51813 whole entry): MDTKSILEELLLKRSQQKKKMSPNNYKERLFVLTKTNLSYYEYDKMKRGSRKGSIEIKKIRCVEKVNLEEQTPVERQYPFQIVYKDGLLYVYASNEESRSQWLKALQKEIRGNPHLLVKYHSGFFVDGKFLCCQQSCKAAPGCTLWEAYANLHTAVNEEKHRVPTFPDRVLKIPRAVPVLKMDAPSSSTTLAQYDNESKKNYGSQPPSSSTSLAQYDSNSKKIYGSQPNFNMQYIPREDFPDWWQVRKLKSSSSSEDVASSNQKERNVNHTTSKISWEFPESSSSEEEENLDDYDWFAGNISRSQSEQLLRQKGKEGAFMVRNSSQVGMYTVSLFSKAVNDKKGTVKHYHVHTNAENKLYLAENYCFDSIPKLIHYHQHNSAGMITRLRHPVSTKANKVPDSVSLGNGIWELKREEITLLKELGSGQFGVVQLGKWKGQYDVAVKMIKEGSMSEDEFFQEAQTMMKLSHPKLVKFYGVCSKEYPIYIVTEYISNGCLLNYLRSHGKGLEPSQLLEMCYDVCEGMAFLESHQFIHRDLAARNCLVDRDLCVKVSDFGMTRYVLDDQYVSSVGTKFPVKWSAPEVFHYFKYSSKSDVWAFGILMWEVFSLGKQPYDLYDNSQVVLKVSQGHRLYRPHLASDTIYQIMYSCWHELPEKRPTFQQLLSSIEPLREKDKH
T3 sequence (Q9P286 whole entry): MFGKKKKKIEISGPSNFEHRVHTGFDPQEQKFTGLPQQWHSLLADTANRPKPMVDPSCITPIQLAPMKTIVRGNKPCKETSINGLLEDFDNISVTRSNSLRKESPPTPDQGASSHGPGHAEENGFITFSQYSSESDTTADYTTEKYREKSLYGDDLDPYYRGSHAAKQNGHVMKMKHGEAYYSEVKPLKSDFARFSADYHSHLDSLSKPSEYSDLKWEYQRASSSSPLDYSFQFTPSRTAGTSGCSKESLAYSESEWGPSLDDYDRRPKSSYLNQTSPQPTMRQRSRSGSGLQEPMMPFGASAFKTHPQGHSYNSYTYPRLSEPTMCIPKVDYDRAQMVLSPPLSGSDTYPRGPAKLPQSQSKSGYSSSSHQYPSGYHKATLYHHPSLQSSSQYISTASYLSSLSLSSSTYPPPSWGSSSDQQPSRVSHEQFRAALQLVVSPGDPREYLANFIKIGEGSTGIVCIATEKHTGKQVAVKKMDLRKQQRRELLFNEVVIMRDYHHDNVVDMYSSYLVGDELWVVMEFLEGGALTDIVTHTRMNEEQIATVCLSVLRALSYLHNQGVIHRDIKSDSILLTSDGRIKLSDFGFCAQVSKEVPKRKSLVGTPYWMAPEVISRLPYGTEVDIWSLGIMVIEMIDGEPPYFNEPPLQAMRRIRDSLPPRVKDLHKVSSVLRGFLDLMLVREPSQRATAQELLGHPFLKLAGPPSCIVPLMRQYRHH
T26 sequence (Q14289 whole entry): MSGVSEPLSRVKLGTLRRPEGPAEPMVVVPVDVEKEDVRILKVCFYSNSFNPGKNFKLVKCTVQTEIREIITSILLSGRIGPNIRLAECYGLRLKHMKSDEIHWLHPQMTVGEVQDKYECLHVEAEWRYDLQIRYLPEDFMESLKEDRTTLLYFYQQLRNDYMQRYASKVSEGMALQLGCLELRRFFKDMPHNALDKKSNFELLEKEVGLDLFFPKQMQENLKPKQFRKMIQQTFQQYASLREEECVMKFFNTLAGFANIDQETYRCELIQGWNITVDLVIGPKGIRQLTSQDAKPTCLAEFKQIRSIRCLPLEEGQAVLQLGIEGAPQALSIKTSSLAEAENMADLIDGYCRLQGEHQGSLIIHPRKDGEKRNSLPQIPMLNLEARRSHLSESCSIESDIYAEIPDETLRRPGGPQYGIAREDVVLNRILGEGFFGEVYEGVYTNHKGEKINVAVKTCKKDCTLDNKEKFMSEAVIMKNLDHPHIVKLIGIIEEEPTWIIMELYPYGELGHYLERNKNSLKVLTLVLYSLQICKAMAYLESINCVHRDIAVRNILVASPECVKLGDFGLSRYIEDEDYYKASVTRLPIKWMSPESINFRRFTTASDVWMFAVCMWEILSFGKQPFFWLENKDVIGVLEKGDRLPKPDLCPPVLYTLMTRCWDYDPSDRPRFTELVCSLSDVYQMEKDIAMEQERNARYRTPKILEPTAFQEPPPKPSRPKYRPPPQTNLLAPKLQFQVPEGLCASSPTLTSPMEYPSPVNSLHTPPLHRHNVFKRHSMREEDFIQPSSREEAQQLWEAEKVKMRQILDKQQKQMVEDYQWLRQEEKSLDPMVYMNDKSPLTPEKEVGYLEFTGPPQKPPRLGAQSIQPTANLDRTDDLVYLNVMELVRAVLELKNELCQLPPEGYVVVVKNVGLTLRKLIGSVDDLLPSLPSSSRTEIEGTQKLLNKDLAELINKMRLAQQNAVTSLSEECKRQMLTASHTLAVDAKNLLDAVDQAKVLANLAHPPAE
T13 sequence (P36894 24-532): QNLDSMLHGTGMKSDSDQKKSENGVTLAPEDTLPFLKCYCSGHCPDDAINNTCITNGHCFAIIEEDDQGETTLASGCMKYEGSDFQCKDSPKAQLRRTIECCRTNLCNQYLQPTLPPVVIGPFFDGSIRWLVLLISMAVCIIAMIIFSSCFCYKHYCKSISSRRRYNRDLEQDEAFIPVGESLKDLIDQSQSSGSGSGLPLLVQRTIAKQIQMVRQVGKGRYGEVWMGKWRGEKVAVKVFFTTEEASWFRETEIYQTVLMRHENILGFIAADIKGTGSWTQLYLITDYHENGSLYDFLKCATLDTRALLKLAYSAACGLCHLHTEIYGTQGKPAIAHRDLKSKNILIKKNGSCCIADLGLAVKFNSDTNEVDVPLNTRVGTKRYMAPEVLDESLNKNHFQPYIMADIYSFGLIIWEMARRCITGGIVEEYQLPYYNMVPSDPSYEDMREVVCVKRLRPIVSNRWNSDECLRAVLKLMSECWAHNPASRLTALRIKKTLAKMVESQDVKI

`CN(C)C(=O)c1cc2cnc(Nc3ccc(-c4csc5c(=O)cc(N6CCOCC6)oc45)cc3)nc2n1C1CCCC1` [SRX3177] was tested, and the remaining binding at 1 µM [1] was 97%, the remaining binding at 1 µM [2] was 85% and the remaining binding at 1 µM [3] was 89%. For the same compound, the remaining binding at 1 µM [4] was 44%, the remaining binding at 1 µM [5] was 96% and the remaining binding at 1 µM [6] was 6.6%. For the same compound, the remaining binding at 1 µM [7] was 100%, the remaining binding at 1 µM [8] was 71% and the remaining binding at 1 µM [9] was 47%. The remaining binding at 1 µM [10] was 76%, the remaining binding at 1 µM [11] was 41% and the remaining binding at 1 µM [12] was 51%. It also gave a remaining binding at 1 µM [13] of 100%, a remaining binding at 1 µM [14] of 47% and a remaining binding at 1 µM [15] of 71%. It also gave a remaining binding at 1 µM [16] of 69%, a remaining binding at 1 µM [17] of 67% and a remaining binding at 1 µM [18] of 83%. The remaining binding at 1 µM [19] was 81%, the remaining binding at 1 µM [20] was 1.8% and the remaining binding at 1 µM [21] was 92%. For the same compound, the remaining binding at 1 µM [22] was 79%, the remaining binding at 1 µM [23] was 88% and the remaining binding at 1 µM [24] was 49%. The remaining binding at 1 µM [25] was 1.8%, the remaining binding at 1 µM [26] was 100% and the remaining binding at 1 µM [27] was 98%. The remaining binding at 1 µM [28] was 58%, the remaining binding at 1 µM ([29]; RSK2(Kin.Dom.1-N-terminal) (RPS6KA3)) was 80% and the remaining binding at 1 µM ([29]; RSK2(Kin.Dom.2-C-terminal) (RPS6KA3)) was 100%. The remaining binding at 1 µM [30] was 77%, the remaining binding at 1 µM [31] was 100% and the “Percent Control” value [32] was 79. It also gave a remaining binding at 1 µM ([32]; read-out: Percent Control) of 88%.
